Assay results reported in PubChem BioAssay AID1963976 (Molecular Pharmacology Branch, DTP, NCI, 2024).

System: 435261-313-R-J1-PDC tumor spheroid viability
Assay: Anticancer human tumor 435261-313-R-J1-PDC patient-derived colon adenocarcinoma cell line growth inhibition [PI3K]
Conditions: spheroids with HUVEC and MSC; for IC50: curve of first compound; for viability, T/C: stronger effect = lower value
Outline: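 Viability of mixed-cell spheroids was determined after exposure to pairwise combinations, one partner being inavolisib, alpelisib, duvelisib or copanlisib. Highest tested concentration matched clinical Cmax where known and 10 microM where not, descending in half-log steps.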
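Note: spheroids exposed to compounds for 7 days.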

Question: Which results are given for `C#Cc1c(F)ccc2cc(O)cc(-c3ncc4c(N5CC6CCC(C5)N6)nc(OCC56CCCN5CC(F)C6)nc4c3F)c12` (configuration not stated) + CC(Nc1ccc2c(c1)OCCn1cc(N3C(=O)OCC3C(F)F)nc1-2)C(N)=O?
Answer: IC50 (second compound 0.00316 µM): 3730 nM; IC50 (second compound 0.01 µM): 2040 nM; IC50 (second compound 0.0316 µM): 1920 nM; IC50 (second compound 0.1 µM): 85.9 nM; IC50 (second compound 0.316 µM): < 31.6 nM; IC50 (second compound 1 µM): < 31.6 nM; viability, T/C (second compound 0.00316 µM, first compound 0.0316 µM): 73.9%; viability, T/C (second compound 0.00316 µM, first compound 0.1 µM): 91.2%; viability, T/C (second compound 0.00316 µM, first compound 0.316 µM): 85.6%; viability, T/C (second compound 0.00316 µM, first compound 1 µM): 98.2%; viability, T/C (second compound 0.00316 µM, first compound 3.16 µM): 54.1%; viability, T/C (second compound 0.00316 µM, first compound 10 µM): 25.7%; viability, T/C (second compound 0.01 µM, first compound 0.0316 µM): 74.4%; viability, T/C (second compound 0.01 µM, first compound 0.1 µM): 93.9%; viability, T/C (second compound 0.01 µM, first compound 0.316 µM): 90.7%; viability, T/C (second compound 0.01 µM, first compound 1 µM): 65.8%; viability, T/C (second compound 0.01 µM, first compound 3.16 µM): 41.1%; viability, T/C (second compound 0.01 µM, first compound 10 µM): 28.8%; viability, T/C (second compound 0.0316 µM, first compound 0.0316 µM): 54.5%; viability, T/C (second compound 0.0316 µM, first compound 0.1 µM): 65.7%; viability, T/C (second compound 0.0316 µM, first compound 0.316 µM): 66.2%; viability, T/C (second compound 0.0316 µM, first compound 1 µM): 76.5%; viability, T/C (second compound 0.0316 µM, first compound 3.16 µM): 38.1%; viability, T/C (second compound 0.0316 µM, first compound 10 µM): 13.8%; viability, T/C (second compound 0.1 µM, first compound 0.0316 µM): 43.9%; viability, T/C (second compound 0.1 µM, first compound 0.1 µM): 57%; viability, T/C (second compound 0.1 µM, first compound 0.316 µM): 47.4%; viability, T/C (second compound 0.1 µM, first compound 1 µM): 33.2%; viability, T/C (second compound 0.1 µM, first compound 3.16 µM): 22.6%; viability, T/C (second compound 0.1 µM, first compound 10 µM): 12.3%; viability, T/C (second compound 0.316 µM, first compound 0.0316 µM): 21.7%; viability, T/C (second compound 0.316 µM, first compound 0.1 µM): 21.6%; viability, T/C (second compound 0.316 µM, first compound 0.316 µM): 26.5%; viability, T/C (second compound 0.316 µM, first compound 1 µM): 17.5%; viability, T/C (second compound 0.316 µM, first compound 3.16 µM): 15.1%; viability, T/C (second compound 0.316 µM, first compound 10 µM): 7.18%; viability, T/C (second compound 1 µM, first compound 0.0316 µM): 18.9%; viability, T/C (second compound 1 µM, first compound 0.1 µM): 14.5%; viability, T/C (second compound 1 µM, first compound 0.316 µM): 13.1%; viability, T/C (second compound 1 µM, first compound 1 µM): 12%; viability, T/C (second compound 1 µM, first compound 3.16 µM): 7.99%; viability, T/C (second compound 1 µM, first compound 10 µM): 3.34%
